Reference: ChEMBL document CHEMBL5579824, “Novel Hsp90-Targeting PROTACs: Enhanced synergy with cisplatin in combination therapy of cervical cancer” (Eur J Med Chem, 2024)
Activity calls are given as the source filed them. The rule behind the calls is not given here.

Legend:
SiHa [1] = experiment: Synergistic antiproliferative activity against human SiHa cells assessed as combination index at 0.5 uM incubated for 72 hrs in presence of 1 uM cisplatin by CCK-8 assay; assay type: functional
SiHa [2] = experiment: Induction of apoptosis in human SiHa cells assessed as increase in apoptotic cells incubated after 48 hrs by annexin V-FITC/PI staining based flow cytometry; assay type: functional, cell-based; settings: dose 0.05-10 µM
SiHa [3] = experiment: Induction of cell cycle arrest in human SiHa cells assessed as increase in accumulation of cells at G2/M pahse incubated after 48 hrs by PI staining based flow cytometry; assay type: functional; settings: dose 0.05-10 µM
SiHa [4] = experiment: Synergistic antiproliferative activity against human SiHa cells assessed as combination index at 0.5 uM incubated for 72 hrs in presence of 0.01 uM cisplatin by CCK-8 assay; assay type: functional
SiHa [5] = experiment: Inhibition of cell migration in human SiHa cells at 0.5 uM measured after 48 hrs by microscope based wound healing assay relative to control; assay type: functional
SiHa [6] = experiment: Induction of apoptosis in human SiHa cells assessed as late apoptotic cells at 2.5 uM incubated after 48 hrs by annexin V-FITC/PI staining based flow cytometry (reference value: 6.93 %); assay type: functional
SiHa [7] = experiment: Synergistic antiproliferative activity against human SiHa cells assessed as combination index at 0.1 uM incubated for 72 hrs in presence of 0.32 uM cisplatin by CCK-8 assay; assay type: functional
SiHa [8] = experiment: Induction of cell cycle arrest in human SiHa cells assessed as accumulation of cells at G2/M pahse at 0.05 uM incubated after 48 hrs by PI staining based flow cytometry (reference value: 7.37 %); assay type: functional
SiHa [9] = experiment: Synergistic antiproliferative activity against human SiHa cells assessed as combination index at 1 uM incubated for 72 hrs in presence of 0.1 uM cisplatin by CCK-8 assay; assay type: functional
SiHa [10] = experiment: Synergistic antiproliferative activity against human SiHa cells assessed as combination index at 0.5 uM incubated for 72 hrs in presence of 0.1 uM cisplatin by CCK-8 assay; assay type: functional
[11] = Toxicity in BALB/c nude mouse xenografted with human SiHa cells assessed as body weight weight loss at 2 mg/kg, ip co-treated with cisplatin separately for every two days; assay type: organism-based; settings: in vivo
SiHa [12] = experiment: Induction of apoptosis in human SiHa cells assessed as early apoptotic cells at 10 uM incubated after 48 hrs by annexin V-FITC/PI staining based flow cytometry (reference value: 2.05 %); assay type: functional
SiHa [13] = experiment: Synergistic antiproliferative activity against human SiHa cells assessed as combination index at 5 uM incubated for 72 hrs in presence of 1 uM cisplatin by CCK-8 assay; assay type: functional
SiHa [14] = experiment: Synergistic antiproliferative activity against human SiHa cells assessed as combination index at 10 uM incubated for 72 hrs in presence of 1 uM cisplatin by CCK-8 assay; assay type: functional
SiHa [15] = experiment: Synergistic antiproliferative activity against human SiHa cells assessed as combination index at 1 uM incubated for 72 hrs in presence of 3.16 uM cisplatin by CCK-8 assay; assay type: functional
SiHa [16] = experiment: Synergistic antiproliferative activity against human SiHa cells assessed as combination index at 5 uM incubated for 72 hrs in presence of 0.03 uM cisplatin by CCK-8 assay; assay type: functional
SiHa [17] = experiment: Synergistic antiproliferative activity against human SiHa cells assessed as combination index at 5 uM incubated for 72 hrs in presence of 10 uM cisplatin by CCK-8 assay; assay type: functional
SiHa [18] = experiment: Induction of cell cycle arrest in human SiHa cells assessed as accumulation of cells at G1 pahse at 2.5 uM incubated after 48 hrs by PI staining based flow cytometry (reference value: 83.90 %); assay type: functional
SiHa [19] = experiment: Synergistic antiproliferative activity against human SiHa cells assessed as combination index at 0.05 uM incubated for 72 hrs in presence of 0.03 uM cisplatin by CCK-8 assay; assay type: functional
SiHa [20] = experiment: Synergistic antiproliferative activity against human SiHa cells assessed as combination index at 1 uM incubated for 72 hrs in presence of 0.03 uM cisplatin by CCK-8 assay; assay type: functional
SiHa [21] = experiment: Synergistic antiproliferative activity against human SiHa cells assessed as combination index at 0.75 uM incubated for 72 hrs in presence of 0.1 uM cisplatin by CCK-8 assay; assay type: functional
SiHa [22] = experiment: Inhibition of cell migration in human SiHa cells at 0.05 uM measured for 24 to 48 hrs by microscope based wound healing assay; assay type: functional; settings: time 24-48 hrs
[23] = target: T1, Protein cereblon/Heat shock protein HSP 90-alpha/Heat shock protein HSP 90-beta (Homo sapiens) (UniProt P07900+P08238+Q96SW2); experiment: Protac activity at CRBN/Hsp90 in human SiHa cells assessed as decrease in mTOR protein expression level at 0.01 to 1 uM incubated for 10 hrs by Western blot analysis; assay type: cell-based; settings: dose 0.01-1 µM
SiHa [24] = experiment: Synergistic antiproliferative activity against human SiHa cells assessed as combination index at 1 uM incubated for 72 hrs in presence of 0.01 uM cisplatin by CCK-8 assay; assay type: functional
SiHa [25] = experiment: Synergistic antiproliferative activity against human SiHa cells assessed as combination index at 1 uM incubated for 72 hrs in presence of 10 uM cisplatin by CCK-8 assay; assay type: functional
SiHa [26] = experiment: Induction of apoptosis in human SiHa cells assessed as late apoptotic cells at 1 uM incubated after 48 hrs by annexin V-FITC/PI staining based flow cytometry (reference value: 6.93 %); assay type: functional
SiHa [27] = experiment: Synergistic antiproliferative activity against human SiHa cells assessed as combination index at 0.75 uM incubated for 72 hrs in presence of 1 uM cisplatin by CCK-8 assay; assay type: functional
SiHa [28] = experiment: Induction of cell cycle arrest in human SiHa cells assessed as accumulation of cells at S pahse at 1 uM incubated after 48 hrs by PI staining based flow cytometry (reference value: 8.51 %); assay type: functional
[29] = target: T1, Protein cereblon/Heat shock protein HSP 90-alpha/Heat shock protein HSP 90-beta (Homo sapiens); experiment: Protac activity at CRBN/Hsp90 in human SiHa cells assessed as induction of Hsp90 degradation at 0.05 uM incubated for 10 hrs by Western blot analysis; assay type: cell-based
SiHa [30] = experiment: Induction of apoptosis in human SiHa cells assessed as early apoptotic cells at 2.5 uM incubated after 48 hrs by annexin V-FITC/PI staining based flow cytometry (reference value: 2.05 %); assay type: functional
SiHa [31] = experiment: Synergistic antiproliferative activity against human SiHa cells assessed as combination index at 0.05 uM incubated for 72 hrs in presence of 3.16 uM cisplatin by CCK-8 assay; assay type: functional
SiHa [32] = experiment: Induction of apoptosis in human SiHa cells assessed as necrotic cells at 1 uM incubated after 48 hrs by annexin V-FITC/PI staining based flow cytometry (reference value: 0.08 %); assay type: functional
[33] = Toxicity in BALB/c nude mouse xenografted with human SiHa cells assessed as body weight weight loss at 2 mg/kg, ip; assay type: organism-based; settings: in vivo
SiHa [34] = experiment: Antitumor activity against human SiHa cells xenografted in BALB/c nude mouse assessed as reduction in Ki67 protein expression at 2 mg/kg, ip by immunohistochemical analysis; assay type: functional, organism-based
SiHa [35] = experiment: Synergistic antiproliferative activity against human SiHa cells assessed as combination index at 0.05 uM incubated for 72 hrs in presence of 1 uM cisplatin by CCK-8 assay; assay type: functional

CC1(C)CC(=O)c2c(C(F)(F)F)nn(-c3ccc(C(N)=O)c(N[C@H]4CC[C@H](OC(=O)CNC(=O)CCCCCCCNc5cccc6c5CN(C5CCC(=O)NC5=O)C6=O)CC4)c3)c2C1 (stereo not given in full)
CI (SiHa [1]): 0.13
Activity (SiHa [2]): Dose-Dependent Effect
Activity (SiHa [3]): Dose-Dependent Effect
CI (SiHa [4]): 0.18
inhibition at 0.5 µM (SiHa [5]): ~100%
Activity (SiHa [6]): 22.71%
CI (SiHa [7]): 0.45
Activity (SiHa [8]): 9.88%
CI (SiHa [9]): 0.21
CI (SiHa [10]): 0.13
Activity [11]: Non-Toxic
Activity (SiHa [12]): 20.83%
CI (SiHa [13]): 0.84
CI (SiHa [14]): 1.78
CI (SiHa [15]): 0.18
CI (SiHa [16]): 1.02
CI (SiHa [17]): 0.51
Activity (SiHa [18]): 53.29%
CI (SiHa [19]): 0.3
CI (SiHa [20]): 0.22
CI (SiHa [21]): 0.18
inhibition (SiHa [22]): Active
Activity [23]: inactive
CI (SiHa [24]): 0.23
CI (SiHa [25]): 0.17
Activity (SiHa [26]): 24.2%
CI (SiHa [27]): 0.17
Activity (SiHa [28]): 13.56%
Activity [29]: Active
Activity (SiHa [30]): 21.35%
CI (SiHa [31]): 1.01
Activity (SiHa [32]): 0.29%
Activity [33]: Non-Toxic
Activity (SiHa [34]): Active
CI (SiHa [35]): 0.74
